Test results published in paper PMC7153038, “Pharmacologic inhibition of RGD‐binding integrins ameliorates fibrosis and improves function following kidney injury” (Physiological Reports, 2020).
Where two headings read alike, the source gives them in different places.

What was measured:
[1] = biological target: T1, integrin αvβ1 (Homo sapiens, UniProt P05556+P06756); assay: integrin αvβ1-mediated attachment of HEK-293 cells to TGFβ-1 latency-associated peptide; assay type: cell-based; conditions: mean and SD, at least 3 independent assays, LAP ligand
T1 construct: HEK‐293 cells, which naturally express this integrin; endogenous in cells; host or cells: HEK-293
T1 sequence (P06756 31-889 limits assumed): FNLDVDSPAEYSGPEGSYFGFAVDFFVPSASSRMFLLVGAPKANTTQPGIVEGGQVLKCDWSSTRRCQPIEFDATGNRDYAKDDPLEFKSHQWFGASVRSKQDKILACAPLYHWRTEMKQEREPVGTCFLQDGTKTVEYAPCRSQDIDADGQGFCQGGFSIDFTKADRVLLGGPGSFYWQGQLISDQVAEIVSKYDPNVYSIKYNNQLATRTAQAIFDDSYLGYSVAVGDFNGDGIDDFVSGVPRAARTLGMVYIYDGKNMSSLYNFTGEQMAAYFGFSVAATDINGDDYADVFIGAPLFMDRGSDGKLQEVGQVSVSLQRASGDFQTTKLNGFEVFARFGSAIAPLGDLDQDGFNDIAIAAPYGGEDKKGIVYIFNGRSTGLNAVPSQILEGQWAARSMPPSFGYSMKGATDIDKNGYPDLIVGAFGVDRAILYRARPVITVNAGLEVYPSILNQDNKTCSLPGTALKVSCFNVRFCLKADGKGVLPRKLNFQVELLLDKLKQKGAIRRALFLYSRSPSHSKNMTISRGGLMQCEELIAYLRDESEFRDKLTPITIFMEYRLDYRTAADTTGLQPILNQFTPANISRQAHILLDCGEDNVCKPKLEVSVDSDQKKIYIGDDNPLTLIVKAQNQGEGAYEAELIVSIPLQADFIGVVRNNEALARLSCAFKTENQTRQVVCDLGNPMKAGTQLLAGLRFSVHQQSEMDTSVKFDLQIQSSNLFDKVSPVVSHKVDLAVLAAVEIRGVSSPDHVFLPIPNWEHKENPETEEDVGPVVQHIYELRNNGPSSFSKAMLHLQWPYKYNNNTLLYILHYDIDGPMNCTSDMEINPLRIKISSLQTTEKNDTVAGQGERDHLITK
T1 sequence (P06756 891-1048 partner limits assumed): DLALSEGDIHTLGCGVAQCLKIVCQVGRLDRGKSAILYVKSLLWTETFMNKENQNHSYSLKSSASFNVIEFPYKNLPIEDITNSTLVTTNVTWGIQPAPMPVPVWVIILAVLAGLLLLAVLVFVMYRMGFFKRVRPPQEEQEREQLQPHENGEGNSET
T1 sequence (P05556 21-798): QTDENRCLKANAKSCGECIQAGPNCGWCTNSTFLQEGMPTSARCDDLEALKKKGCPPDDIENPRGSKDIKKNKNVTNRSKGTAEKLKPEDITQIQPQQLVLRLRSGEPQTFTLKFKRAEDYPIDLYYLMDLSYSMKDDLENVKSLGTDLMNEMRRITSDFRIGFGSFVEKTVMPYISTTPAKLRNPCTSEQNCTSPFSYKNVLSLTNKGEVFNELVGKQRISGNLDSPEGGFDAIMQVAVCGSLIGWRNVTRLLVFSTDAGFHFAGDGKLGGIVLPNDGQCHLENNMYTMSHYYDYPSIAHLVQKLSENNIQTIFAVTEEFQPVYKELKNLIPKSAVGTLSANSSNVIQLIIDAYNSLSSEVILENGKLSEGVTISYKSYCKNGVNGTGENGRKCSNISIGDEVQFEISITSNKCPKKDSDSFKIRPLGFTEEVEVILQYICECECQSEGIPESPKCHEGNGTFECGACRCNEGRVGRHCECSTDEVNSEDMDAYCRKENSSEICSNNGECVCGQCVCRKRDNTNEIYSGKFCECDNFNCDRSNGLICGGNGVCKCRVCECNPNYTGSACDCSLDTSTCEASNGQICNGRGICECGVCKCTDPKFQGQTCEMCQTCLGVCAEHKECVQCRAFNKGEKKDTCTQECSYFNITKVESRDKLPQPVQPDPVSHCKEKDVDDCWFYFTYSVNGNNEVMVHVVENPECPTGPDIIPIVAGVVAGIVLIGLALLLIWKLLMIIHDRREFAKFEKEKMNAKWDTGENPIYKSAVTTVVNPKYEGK
Method: (§1) The RGD peptidomimetic CWHM‐12 was synthesized as described in detail previously (Henderson et al., 2013). A close structural analog of this compound with improved oral bioavailability, CWHM‐680, was also synthesized at Saint Louis University. Potency for the compounds in blocking cell attachment mediated by integrins αvβ3, αvβ5, and αvβ6 was measured as previously described (Henderson et al., 2013). Potency for blocking cell attachment mediated by integrins αvβ1, αvβ8, and α8β1 was measured using modifications of this method which are briefly summarized as follows: To assess CWHM‐12 and CWHM‐680 effects on cellular αvβ1 function, we varied its concentration in an assay measuring binding of HEK‐293 cells, which naturally express this integrin (Nagarajan et al., 2007), to the surface of 96‐well plates coated with purified recombinant human TGFβ‐1 latency‐associated peptide (R&D Systems). To assess the effect on cellular αvβ8 function, we performed the assay with the same LAP ligand but with HEK‐293 cells which had been stably transfected to overexpress this integrin. To assess the effect on cellular α8β1 function, we performed the assay using HEK‐293 cells, which had been stably transfected to overexpress this integrin and used purified recombinant mouse nephronectin as the immobilized ligand (R&D Systems). […]

[2] = biological target: integrin αvβ3 (Homo sapiens, UniProt P05106+P06756); assay: integrin αvβ3-mediated cell attachment to ligand; assay type: cell-based; conditions: mean and SD, at least 3 independent assays, read-out: IC50, inhibition of αvβ3-mediated cell attachment
integrin αvβ3, sequence (P06756 31-889 limits assumed): as the sequence (P06756 31-889 limits assumed) above
integrin αvβ3, sequence (P06756 891-1048 partner limits assumed): as the sequence (P06756 891-1048 partner limits assumed) above
integrin αvβ3, sequence (P05106 27-788): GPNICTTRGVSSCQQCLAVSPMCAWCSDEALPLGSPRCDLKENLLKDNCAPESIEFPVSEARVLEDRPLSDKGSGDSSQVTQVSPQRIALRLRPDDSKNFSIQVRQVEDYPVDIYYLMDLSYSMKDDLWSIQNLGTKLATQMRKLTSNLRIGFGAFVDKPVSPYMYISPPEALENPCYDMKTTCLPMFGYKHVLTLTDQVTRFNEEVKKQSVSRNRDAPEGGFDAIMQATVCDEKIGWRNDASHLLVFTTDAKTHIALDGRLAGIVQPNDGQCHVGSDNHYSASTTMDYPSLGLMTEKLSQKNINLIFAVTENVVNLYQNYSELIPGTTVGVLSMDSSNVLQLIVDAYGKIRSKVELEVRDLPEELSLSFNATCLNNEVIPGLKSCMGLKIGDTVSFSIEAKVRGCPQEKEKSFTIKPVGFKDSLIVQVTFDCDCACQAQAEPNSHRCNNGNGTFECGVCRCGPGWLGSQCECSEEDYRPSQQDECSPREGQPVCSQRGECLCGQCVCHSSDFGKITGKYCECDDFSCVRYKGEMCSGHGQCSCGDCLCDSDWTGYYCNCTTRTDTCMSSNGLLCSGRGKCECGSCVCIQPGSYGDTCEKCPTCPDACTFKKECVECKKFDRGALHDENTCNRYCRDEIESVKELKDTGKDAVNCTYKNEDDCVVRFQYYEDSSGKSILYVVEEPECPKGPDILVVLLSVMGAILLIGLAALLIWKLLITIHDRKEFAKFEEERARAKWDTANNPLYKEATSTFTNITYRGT
Method: as §1

[3] = biological target: integrin αvβ5 (Homo sapiens, UniProt P06756+P18084); assay: integrin αvβ5-mediated cell attachment to ligand; assay type: cell-based; conditions: mean and SD, at least 3 independent assays; read-out: IC50, inhibition of αvβ5-mediated cell attachment
Method: as §1

[4] = biological target: T2, integrin αvβ8 (Homo sapiens, UniProt P06756+P26012); assay: integrin αvβ8-mediated attachment of transfected HEK-293 cells to LAP; assay type: cell-based; conditions: mean and SD, at least 3 independent assays; transfected HEK-293, LAP ligand; read-out: IC50, inhibition of αvβ8-mediated cell attachment
T2 construct: expressed in transfected cells
T2 sequence (P06756 31-889 limits assumed): as the sequence (P06756 31-889 limits assumed) above
T2 sequence (P06756 891-1048 partner limits assumed): as the sequence (P06756 891-1048 partner limits assumed) above
T2 sequence (P26012 43-769): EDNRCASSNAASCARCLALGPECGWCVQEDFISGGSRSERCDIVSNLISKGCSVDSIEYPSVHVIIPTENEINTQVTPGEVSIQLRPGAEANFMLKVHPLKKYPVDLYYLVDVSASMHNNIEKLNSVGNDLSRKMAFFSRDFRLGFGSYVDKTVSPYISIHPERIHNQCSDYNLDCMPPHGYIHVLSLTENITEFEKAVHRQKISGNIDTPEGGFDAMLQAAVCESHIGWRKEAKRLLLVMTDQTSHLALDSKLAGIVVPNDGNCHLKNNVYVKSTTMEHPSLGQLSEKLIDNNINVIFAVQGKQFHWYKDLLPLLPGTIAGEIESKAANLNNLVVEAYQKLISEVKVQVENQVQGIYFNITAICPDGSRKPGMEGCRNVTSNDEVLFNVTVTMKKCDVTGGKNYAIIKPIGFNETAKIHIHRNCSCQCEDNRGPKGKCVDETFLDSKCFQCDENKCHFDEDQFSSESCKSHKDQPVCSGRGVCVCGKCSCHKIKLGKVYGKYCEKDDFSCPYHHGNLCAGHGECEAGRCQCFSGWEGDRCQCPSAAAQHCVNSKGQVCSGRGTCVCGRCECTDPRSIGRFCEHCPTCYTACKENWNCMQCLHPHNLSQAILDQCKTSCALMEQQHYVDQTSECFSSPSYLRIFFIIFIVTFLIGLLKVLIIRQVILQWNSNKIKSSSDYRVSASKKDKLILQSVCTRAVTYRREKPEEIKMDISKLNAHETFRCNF
Method: as §1

[5] = biological target: T3, integrin α5β1 (Homo sapiens, UniProt P05556+P08648); assay: integrin α5β1-mediated attachment of K562 cells to human plasma fibronectin; assay type: cell-based; conditions: mean and SD, at least 3 independent assays, read-out: IC50, inhibition of α5β1-mediated cell attachment
T3 construct: K562 cells, which naturally express this integrin; endogenous in cells; host or cells: K562
T3 sequence (P08648 42-894 limits assumed): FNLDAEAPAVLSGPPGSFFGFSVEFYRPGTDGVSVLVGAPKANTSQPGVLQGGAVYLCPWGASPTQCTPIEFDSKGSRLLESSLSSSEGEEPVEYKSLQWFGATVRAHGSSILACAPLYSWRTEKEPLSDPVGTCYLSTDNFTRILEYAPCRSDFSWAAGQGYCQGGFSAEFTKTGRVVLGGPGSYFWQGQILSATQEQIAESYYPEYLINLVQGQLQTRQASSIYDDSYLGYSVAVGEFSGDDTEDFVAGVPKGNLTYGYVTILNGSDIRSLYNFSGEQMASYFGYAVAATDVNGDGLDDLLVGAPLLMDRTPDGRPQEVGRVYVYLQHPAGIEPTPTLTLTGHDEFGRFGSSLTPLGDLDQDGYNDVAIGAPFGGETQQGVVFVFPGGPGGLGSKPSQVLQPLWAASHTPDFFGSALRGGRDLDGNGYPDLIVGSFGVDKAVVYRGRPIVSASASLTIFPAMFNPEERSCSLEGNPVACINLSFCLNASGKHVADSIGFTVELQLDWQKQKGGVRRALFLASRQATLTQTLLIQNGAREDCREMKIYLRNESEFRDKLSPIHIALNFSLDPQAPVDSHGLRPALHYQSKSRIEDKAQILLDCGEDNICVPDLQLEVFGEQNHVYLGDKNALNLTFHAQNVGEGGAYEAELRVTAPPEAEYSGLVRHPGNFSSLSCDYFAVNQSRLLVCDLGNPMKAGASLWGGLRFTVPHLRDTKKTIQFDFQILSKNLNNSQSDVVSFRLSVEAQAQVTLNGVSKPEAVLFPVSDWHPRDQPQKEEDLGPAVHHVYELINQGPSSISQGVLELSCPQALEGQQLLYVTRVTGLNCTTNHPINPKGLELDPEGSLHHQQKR
T3 sequence (P08648 895-1049 partner limits assumed): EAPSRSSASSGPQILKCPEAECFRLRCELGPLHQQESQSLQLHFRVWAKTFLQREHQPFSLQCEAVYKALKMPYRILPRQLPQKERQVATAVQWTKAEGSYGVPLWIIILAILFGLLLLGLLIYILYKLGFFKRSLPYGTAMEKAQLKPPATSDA
T3 sequence (P05556 21-798): as the sequence (P05556 21-798) above

[6] = tested on: pro-fibrotic gene expression in kidney; assay: aristolochic acid kidney injury model, kidney qRT-PCR; assay type: in vivo, mouse; conditions: AA-injured, 100 mg/kg/day s.c. minipump, day 27; vehicle 32-fold
Method: Alzet osmotic minipumps (Cupertino, CA) were implanted subcutaneously in 8‐ to 10‐week‐old wild‐type male ICR outbred mice (Envigo) one day prior to induction of kidney injury to deliver vehicle (DMSO/H2O 1:1) or CWHM‐12 at a dose of 100 mg/kg per day. A single 5 mg/kg dose of aristolochic acid I sodium salt (Sigma‐Aldrich, A9451) in PBS was administered intraperitoneally to induce kidney injury, and mice were monitored daily for 27 days thereafter. Control (uninjured) mice were injected with an equal volume of PBS. Blood was obtained by maxillary vein puncture on days 0, 5 (peak injury), and 28 (study endpoint). For testing CWHM‐680, oral gavage (100 mg/kg per day) was started one day prior to injection of aristolochic acid I sodium salt and continued once daily until the study endpoint. Blood was obtained at days 0, 7, and 23 (study endpoint). […] Serum creatinine was measured by liquid chromatography–mass spectrometry (LC–MS/MS) at the University of Alabama O’Brien Center Bioanalytical Core. CWHM‐12 and CWHM‐680 concentrations were measured in plasma samples by liquid chromatography–tandem mass spectrometry (LC/MS/MS) using compound spiked into control plasma as a standard. All experiments were performed under protocols approved by the Institutional Animal Care and Use Committee at St. Louis University. […]

[7] = plasma compound concentration by LC/MS/MS; assay type: in vivo, mouse; conditions: 100 mg/kg per day s.c. by Alzet minipump
Method: (§2) Alzet osmotic minipumps (Cupertino, CA) were implanted subcutaneously in 8‐ to 10‐week‐old wild‐type male ICR outbred mice (Envigo) one day prior to induction of kidney injury to deliver vehicle (DMSO/H2O 1:1) or CWHM‐12 at a dose of 100 mg/kg per day. A single 5 mg/kg dose of aristolochic acid I sodium salt (Sigma‐Aldrich, A9451) in PBS was administered intraperitoneally to induce kidney injury, and mice were monitored daily for 27 days thereafter. Control (uninjured) mice were injected with an equal volume of PBS. Blood was obtained by maxillary vein puncture on days 0, 5 (peak injury), and 28 (study endpoint). For testing CWHM‐680, oral gavage (100 mg/kg per day) was started one day prior to injection of aristolochic acid I sodium salt and continued once daily until the study endpoint. Blood was obtained at days 0, 7, and 23 (study endpoint). […] Serum creatinine was measured by liquid chromatography–mass spectrometry (LC–MS/MS) at the University of Alabama O’Brien Center Bioanalytical Core. CWHM‐12 and CWHM‐680 concentrations were measured in plasma samples by liquid chromatography–tandem mass spectrometry (LC/MS/MS) using compound spiked into control plasma as a standard. All experiments were performed under protocols approved by the Institutional Animal Care and Use Committee at St. Louis University.

[8] = observation of deleterious effects in treated animals; assay type: in vivo, mouse; conditions: 100 mg/kg/day s.c. minipump, 28 days
Method: as §2

[9] = tested on: integrin αIIbβ3; set-up: method as in Henderson et al., 2013; conditions: no significant activity; ref Henderson et al., 2013; read-out: activity against integrin αIIbβ3; cited from earlier work

## CC(C)(C)c1cc(Br)cc([C@H](CC(=O)O)NC(=O)CNC(=O)c2cc(O)cc(NC3=NCC(O)CN3)c2)c1 (some centres unmarked) [CWHM‐12]
[1]; listed as CWHM−12, read-out: IC50, inhibition of αvβ1-mediated cell attachment
  IC50: 0.29 ± 0.14 nM
[1]; read-out: IC50, inhibition of αvβ1-mediated cell attachment
  IC50: < 1 nM
[2]; listed as CWHM−12
  IC50: 0.47 ± 0.45 nM
[2]
  IC50: < 1 nM
[3]
  IC50: 47 ± 26 nM
[4]
  IC50: 5.8 ± 2.3 nM
[5]
  IC50: 8 ± 3.9 nM
[6]
  Col1a1 mRNA expression increase by qRT-PCR compared with uninjured animals: 9 fold
[7]
  mean steady plasma drug concentration: approximately 5 µg/ml
[8]
  obvious deleterious effects in treated animals: did not observe obvious deleterious effects
[9]
  IC50: > 5000 nM
